According to publication PMC5931096, “A Phase I study of the novel immunomodulatory agent PG545 (pixatimod) in subjects with advanced solid tumours” (British Journal of Cancer, 2018):

Assay: Phase I dose-escalation: safety, tolerability, DLT and MTD of weekly 1-h IV infusion
Assay type: in vivo
Conditions: Safety Set
Experimental: The study was an open-label, multicentre, phase 1 dose-escalation study using a 3 + 3 design. The primary objective was to determine the MTD of weekly administered PG545 via IV infusion. Secondary objectives were to characterize safety, tolerability, clinical activity, PK and PD biomarkers.
Patients continued treatment until disease progression, unacceptable toxicity or withdrawal (either voluntarily or investigator-decision).
All patients were assessed for safety, those who received at least one dose of PG545 were evaluated for efficacy. Safety assessment included the incidence of all adverse events (AEs), irrespective of relationship to study drug, according to the National Cancer Institute Common Terminology Criteria for Adverse Events, version 4.0, and the incidence of patients experiencing dose modifications and/or premature discontinuation of study drug. Dose-limiting toxicities (DLTs) used to determine the MTD were defined as occurring during Cycle 1 of treatment only and related to PG545 according to investigator assessment. If no DLT occurred in the first three subjects, the next three-subject cohort was enrolled at the next highest available dose level. If a single DLT occurred, an additional three subjects was enrolled at the same dose level. Dose escalation continued until two subjects of the cohort experienced a DLT; this was defined as the toxic dose level. The dose-escalation phase was completed and MTD determined by reducing the dose to the next lowest dose compared to the toxic dose and expanding this cohort to at least 6 subjects.

SMILES: CC(C)CCC[C@@H](C)[C@H]1CC[C@H]2[C@@H]3CC[C@H]4C[C@@H](O[C@@H]5O[C@H](COS(=O)(=O)O)[C@@H](O[C@H]6O[C@H](COS(=O)(=O)O)[C@@H](O[C@H]7O[C@H](COS(=O)(=O)O)[C@@H](O[C@H]8O[C@H](COS(=O)(=O)O)[C@@H](OS(=O)(=O)O)[C@H](OS(=O)(=O)O)[C@H]8OS(=O)(=O)O)[C@H](OS(=O)(=O)O)[C@H]7OS(=O)(=O)O)[C@H](OS(=O)(=O)O)[C@H]6OS(=O)(=O)O)[C@H](OS(=O)(=O)O)[C@H]5OS(=O)(=O)O)CC[C@]4(C)[C@H]3CC[C@]12C [PG545]
- TEAE: Blood creatinine increased (Mild, Unrelated): 1 (4.3%)
- TEAE: Chest discomfort (Mild, Unrelated): 1 (4.3%)
- TEAE: Chest pain (Mild, Unrelated): 2 (8.7%)
- TEAE: Constipation (Mild, Unrelated): 5 (21.7%)
- TEAE: Cough (Mild, Unrelated): 2 (8.7%)
- TEAE: Decreased appetite (Mild, Unrelated): 1 (4.3%)
- TEAE: Deep vein thrombosis (Mild, Unrelated): 1 (4.3%)
- TEAE: Depression (Mild, Unrelated): 3 (13.0%)
- TEAE: Diarrhoea (Mild, Unrelated): 3 (13.0%)
- TEAE: Dry mouth (Mild, Unrelated): 1 (4.3%)
- TEAE: Dry skin (Mild, Unrelated): 1 (4.3%)
- TEAE: Dyspepsia (Mild, Unrelated): 1 (4.3%)
- TEAE: Dyspnoea (Mild, Unrelated): 5 (21.7%)
- TEAE: Fatigue (Mild, Unrelated): 2 (8.7%)
- TEAE: Fungal infection (Mild, Unrelated): 1 (4.3%)
- TEAE: Gastroesophageal reflux disease (Mild, Unrelated): 1 (4.3%)
- TEAE: Gastrointestinal disorders (Mild, Unrelated): 13 (56.5%)
- TEAE: General disorders and administration site conditions (Mild, Unrelated): 7 (30.4%)
- TEAE: Haematochezia (Mild, Unrelated): 1 (4.3%)
- TEAE: Headache (Mild, Unrelated): 1 (4.3%)
- TEAE: Hypercalcaemia (Mild, Unrelated): 1 (4.3%)
- TEAE: Hypertension (second line of this name) (Mild, Unrelated): 1 (4.3%)
- TEAE: Hypokalaemia (Mild, Unrelated): 1 (4.3%)
- TEAE: Infections and infestations (Mild, Unrelated): 4 (17.4%)
- TEAE: Influenza like illness (Mild, Unrelated): 1 (4.3%)
- TEAE: Insomnia (Mild, Unrelated): 3 (13.0%)
- TEAE: Investigations (Mild, Unrelated): 3 (13.0%)
- TEAE: Lethargy (Mild, Unrelated): 2 (8.7%)
- TEAE: Malaise (Mild, Unrelated): 1 (4.3%)
- TEAE: Metabolism and nutritional disorders (Mild, Unrelated): 2 (8.7%)
- TEAE: Mucosal inflammation (Mild, Unrelated): 2 (8.7%)
- TEAE: Musculoskeletal and connective tissue disorders (Mild, Unrelated): 5 (21.7%)
- TEAE: Musculoskeletal chest pain (Mild, Unrelated): 1 (4.3%)
- TEAE: Nausea (Mild, Unrelated): 3 (13.0%)
- TEAE: Nervous system disorders (Mild, Unrelated): 5 (21.7%)
- TEAE: Neutrophil count increased (Mild, Unrelated): 1 (4.3%)
- TEAE: Onycholysis (Mild, Unrelated): 1 (4.3%)
- TEAE: Oropharyngeal pain (Mild, Unrelated): 1 (4.3%)
- TEAE: Pain (Mild, Unrelated): 1 (4.3%)
- TEAE: Pain in extremity (Mild, Unrelated): 2 (8.7%)
- TEAE: Pruritus (Mild, Unrelated): 1 (4.3%)
- TEAE: Psychiatric disorders (Mild, Unrelated): 5 (21.7%)
- TEAE: Respiratory, thoracic and mediastinal disorders (Mild, Unrelated): 6 (26.1%)
- TEAE: Skin and subcutaneous tissue disorders (Mild, Unrelated): 3 (13.0%)
- TEAE: Upper respiratory tract infection (Mild, Unrelated): 2 (8.7%)
- TEAE: Vascular disorders (Mild, Unrelated): 2 (8.7%)
- TEAE: Vomiting (Mild, Unrelated): 5 (21.7%)
- TEAE: Vulvovaginal candidiasis (Mild, Unrelated): 1 (4.3%)
- TEAE: White blood cell count increased (Mild, Unrelated): 1 (4.3%)
- TEAE: aPTT prolonged (Mild, Unrelated): 1 (4.3%)
- TEAE: At least one event (Moderate, Related): 13 (56.5%)
- TEAE: Chills (Moderate, Related): 2 (8.7%)
- TEAE: Constipation (Moderate, Related): 1 (4.3%)
- TEAE: Decreased appetite (Moderate, Related): 2 (8.7%)
- TEAE: Dehydration (Moderate, Related): 1 (4.3%)
- TEAE: Diarrhoea (Moderate, Related): 1 (4.3%)
- TEAE: Dyspnoea (Moderate, Related): 1 (4.3%)
- TEAE: Fall (Moderate, Related): 1 (4.3%)
- TEAE: Fatigue (Moderate, Related): 2 (8.7%)
- TEAE: GGT increased (Moderate, Related): 1 (4.3%)
- TEAE: Gastrointestinal disorders (Moderate, Related): 4 (17.4%)
- TEAE: General disorders and administration site conditions (Moderate, Related): 4 (17.5%)
- TEAE: Hypercholesterolaemia (Moderate, Related): 2 (8.7%)
- TEAE: Hyperlipidaemia (Moderate, Related): 1 (4.3%)
- TEAE: Hypertension (Moderate, Related): 2 (8.7%)
- TEAE: Infusion related reaction (Moderate, Related): 4 (17.4%)
- TEAE: Injury, poisoning and procedural complications (Moderate, Related): 5 (21.7%)
- TEAE: Investigations (Moderate, Related): 1 (4.3%)
- TEAE: Lethargy (Moderate, Related): 1 (4.3%)
- TEAE: Metabolism and nutritional disorders (Moderate, Related): 4 (17.4%)
- TEAE: Nausea (Moderate, Related): 1 (4.3%)
- TEAE: Nervous system disorders (Moderate, Related): 1 (4.3%)
- TEAE: Pyrexia (Moderate, Related): 1 (4.3%)
- TEAE: Respiratory, thoracic and mediastinal disorders (Moderate, Related): 1 (4.3%)
- TEAE: Vascular disorders (Moderate, Related): 2 (8.7%)
- TEAE: Vomiting (Moderate, Related): 1 (4.3%)
- TEAE: AST increased (Moderate, Unrelated): 1 (4.3%)
- TEAE: Abdominal distension (Moderate, Unrelated): 1 (4.3%)
- TEAE: Abdominal pain (Moderate, Unrelated): 3 (13.0%)
- TEAE: Abdominal pain lower (Moderate, Unrelated): 1 (4.3%)
- TEAE: Abdominal pain upper (Moderate, Unrelated): 2 (8.7%)
- TEAE: Anaemia (Moderate, Unrelated): 2 (8.7%)
- TEAE: Arthralgia (Moderate, Unrelated): 1 (4.3%)
- TEAE: At least one event (Moderate, Unrelated): 14 (60.9%)
- TEAE: Back pain (Moderate, Unrelated): 3 (13.0%)
- TEAE: Blood ALP increased (Moderate, Unrelated): 1 (4.3%)
- TEAE: Blood and lymphatic system disorders (Moderate, Unrelated): 2 (8.7%)
- TEAE: Blood bilirubin increased (Moderate, Unrelated): 1 (4.3%)
- TEAE: Constipation (Moderate, Unrelated): 1 (4.3%)
- TEAE: Cough (Moderate, Unrelated): 1 (4.3%)
- TEAE: Decreased appetite (Moderate, Unrelated): 3 (13.0%)
- TEAE: Depression (Moderate, Unrelated): 1 (4.3%)
- TEAE: Diplopia (Moderate, Unrelated): 1 (4.3%)
- TEAE: Dry mouth (Moderate, Unrelated): 1 (4.3%)
- TEAE: Dyspnoea (Moderate, Unrelated): 3 (13.0%)
- TEAE: Eye disorders (Moderate, Unrelated): 1 (4.3%)
- TEAE: Fatigue (Moderate, Unrelated): 3 (13.0%)
- TEAE: GGT increased (Moderate, Unrelated): 1 (4.3%)
- TEAE: Gait disturbance (Moderate, Unrelated): 1 (4.3%)
- TEAE: Gastrointestinal disorders (Moderate, Unrelated): 6 (26.1%)
